Patent US12054485B2, “Substituted imidazoquinolines” (BIONTECH SE, priority 2017, dated 2024)

Target: T1, human TLR8 (Homo sapiens, UniProt Q9NR97)
T1 construct: host or cells: HEK-Blue-hTLR8
T1 sequence (Q9NR97 27-1041): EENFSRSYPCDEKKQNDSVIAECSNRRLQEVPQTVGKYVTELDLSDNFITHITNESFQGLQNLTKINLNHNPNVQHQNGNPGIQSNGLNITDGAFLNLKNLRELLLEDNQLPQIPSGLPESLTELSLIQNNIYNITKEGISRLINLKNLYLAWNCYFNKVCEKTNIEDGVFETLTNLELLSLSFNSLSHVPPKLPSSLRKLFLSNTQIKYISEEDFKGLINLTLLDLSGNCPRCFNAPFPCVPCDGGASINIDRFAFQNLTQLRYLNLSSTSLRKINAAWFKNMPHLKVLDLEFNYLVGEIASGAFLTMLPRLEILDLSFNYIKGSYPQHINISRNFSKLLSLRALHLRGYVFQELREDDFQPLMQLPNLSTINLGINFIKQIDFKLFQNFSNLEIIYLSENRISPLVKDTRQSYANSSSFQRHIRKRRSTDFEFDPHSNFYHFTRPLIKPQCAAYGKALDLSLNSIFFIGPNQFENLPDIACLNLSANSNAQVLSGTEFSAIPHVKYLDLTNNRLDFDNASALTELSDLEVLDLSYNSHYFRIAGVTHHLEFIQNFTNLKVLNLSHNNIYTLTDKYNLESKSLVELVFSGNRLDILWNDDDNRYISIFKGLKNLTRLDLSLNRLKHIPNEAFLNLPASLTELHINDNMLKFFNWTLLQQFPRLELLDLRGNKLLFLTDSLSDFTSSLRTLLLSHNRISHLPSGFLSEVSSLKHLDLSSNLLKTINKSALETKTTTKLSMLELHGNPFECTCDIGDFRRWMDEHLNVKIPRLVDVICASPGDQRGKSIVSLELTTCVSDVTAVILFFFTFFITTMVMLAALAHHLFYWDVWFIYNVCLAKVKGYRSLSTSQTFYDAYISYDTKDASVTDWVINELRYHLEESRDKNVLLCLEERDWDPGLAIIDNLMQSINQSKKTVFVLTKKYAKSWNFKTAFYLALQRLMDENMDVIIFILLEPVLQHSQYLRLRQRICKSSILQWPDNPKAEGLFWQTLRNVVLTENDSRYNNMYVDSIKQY
Experiment: TLR8 reporter gene assay (HEK-Blue-hTLR8, NFkB/AP-1 inducible SEAP)
Type: cell-based
Procedure: 2) TLR Stimulation Assay:
Compounds are tested for stimulation of human TLR7 and TLR8, respectively, via reporter gene expression analyzed in a cell line stably transfected with human TLR7 and TLR8, respectively, and coexpressing an NFkB/AP-1 inducible SEAP reporter gene. Stimulation with a TLR ligand leads to NFkB/AP-1 activation and upregulation and secretion of SEAP, which can be measured in the supernatant with QuantiBlue™ detection system (InvivoGen).
Cell lines used were either HEK-Blue-hTLR7 (InvivoGen #hkb-htlr7) or HEK-Blue-hTLR8 (InvivoGen #hkb-htlr8). Cells were cultured following manufacturer's instructions. […]

activity towards TLR8 in the TLR8 reporter gene assay: no activity
SMILES: CCc1nc2c(N)nc3ccccc3c2n1CCCCN(C(C)=O)C1CCOCC1 [Example 1, N-(4-(4-Amino-2-ethyl-1H-imidazo[4,5-c]quinolin-1-yl)butyl)-N-(tetrahydro-2H-pyran-4-yl)acetamide]
